Measured values as given in patent publication US12180372B2, “Resin composition, optical filter, image display device, solid-state imaging element, and colorant mixture” (FUJIFILM Corporation, priority 2018, dated 2024).

Legend:
[1] = Measurement of maximum absorption wavelength of colorant or colorant mixture in chloroform solution; assay type: physicochemical; conditions: colorant mixture in chloroform, 1×10^−6 mol/L, 10 mm cell, 23° C.
Protocol: The obtained compound F-3 was dissolved in chloroform (concentration: 1×10^−6 mol/L), and the maximum absorption wavelength […] and molar absorption coefficient (c) of the compound F-3 was measured using a cell having an optical path length of 10 mm and using a spectrophotometer UV-1800PC (manufactured by Shimazu Corporation). The maximum absorption wavelength λmax of the compound F-3 was 679 nm, and the molar absorption coefficient (s) was 355000. The obtained compound F-38 was dissolved in chloroform (concentration: 1×10^−6 mol/L), and the maximum absorption wavelength […] and molar absorption coefficient (ε) of the compound F-38 was measured using a cell having an optical path length of 10 mm and using a spectrophotometer UV-1800PC (manufactured by Shimadzu Corporation). The maximum absorption wavelength λmax of the compound F-38 was 590 nm, and the molar absorption coefficient (ε) was 204000. The obtained compound F-51 was dissolved in chloroform (concentration: 1×10^−6 mol/L), and the maximum absorption wavelength λmax and molar absorption coefficient (ε) of the compound F-51 was measured using a cell having an optical path length of 10 mm and using a spectrophotometer UV-1800 (PC (manufactured by Shimadzu Corporation). The maximum absorption wavelength λmax of the compound F-51 was 589 nm, and the molar absorption coefficient (ε) was 244000. The obtained compound F-75 was dissolved in chloroform (concentration: 1×10^−6 mol/L), and the maximum absorption wavelength λmax and molar absorption coefficient (ε) of the compound F-75 was measured using a cell having an optical path length of 10 mm and using a spectrophotometer t-UV-1800PC (manufactured by Shimadzu Corporation). The maximum absorption wavelength λmax of the compound F-75 was 589 nm, and the molar absorption coefficient (ε) was 221000.

[2] = Evaluation of solubility of colorant mixture; assay type: physicochemical; conditions: for Evaluation Solubility: added to toluene at 23° C., stirred for 1 hour, visually observed; for solubility in toluene: 23° C.
Protocol: Solubility of the colorant mixture shown in the following table in […] was evaluated. Specifically, the colorant mixture was added to toluene at 23° C., stirred for 1 hour, and the presence or absence of dissolution of the colorant was visually observed and the solubility was evaluated based on the following evaluation standard.

Row | λmax (nm) [1] [nm] | solubility in toluene [2] | Structure (SMILES) | Evaluation Solubility [2]
1 | 498 | less than 0.1 % by mass | CC1=CC(C)=N/C1=C1\C(=O)C(c2[nH]c(C)cc2C)=C1O [Compound A-3] | D (solubility was less than 0.1% by mass)
2 | 634 | less than 01 % by mass | CCN(CC)c1ccc(C2=C([O-])C(=C3C=CC(=[N+](CC)CC)C=C3)C2=O)cc1 [Compound A-21] | D (solubility was less than 0.1% by mass)
3 | 673 | less than 0.5 % by mass | CCN(CC)c1ccc(C2=C([O-])/C(=C3/C=CC(=[N+](CC)CC)C=C3NC(=O)C(C)(C)CC)C2=O)c(NC(=O)C(C)(C)CC)c1 [Compound A-24] | C (solubility was 0.1% by mass or more and less than 0.5% by mass)
